From patent US10626112B2, “Heterocyclic sulfonamide derivative and medicine comprising same” (EA PHARMA CO., LTD., priority 2014, dated 2020)

The molecules below were run against human TRPA1 (Homo sapiens (Human), UniProt O75762) (assay: Measurement of TRPA1 antagonist activity (2): as (1), different lot of human TRPA1 expression plasmid). Conditions: 293T cells transfected with human TRPA1, allylisothiocyanate 20 μM stimulation, calcium fluorescence, read-out: hTRPA1 IC50.
human TRPA1, sequence (O75762 whole entry): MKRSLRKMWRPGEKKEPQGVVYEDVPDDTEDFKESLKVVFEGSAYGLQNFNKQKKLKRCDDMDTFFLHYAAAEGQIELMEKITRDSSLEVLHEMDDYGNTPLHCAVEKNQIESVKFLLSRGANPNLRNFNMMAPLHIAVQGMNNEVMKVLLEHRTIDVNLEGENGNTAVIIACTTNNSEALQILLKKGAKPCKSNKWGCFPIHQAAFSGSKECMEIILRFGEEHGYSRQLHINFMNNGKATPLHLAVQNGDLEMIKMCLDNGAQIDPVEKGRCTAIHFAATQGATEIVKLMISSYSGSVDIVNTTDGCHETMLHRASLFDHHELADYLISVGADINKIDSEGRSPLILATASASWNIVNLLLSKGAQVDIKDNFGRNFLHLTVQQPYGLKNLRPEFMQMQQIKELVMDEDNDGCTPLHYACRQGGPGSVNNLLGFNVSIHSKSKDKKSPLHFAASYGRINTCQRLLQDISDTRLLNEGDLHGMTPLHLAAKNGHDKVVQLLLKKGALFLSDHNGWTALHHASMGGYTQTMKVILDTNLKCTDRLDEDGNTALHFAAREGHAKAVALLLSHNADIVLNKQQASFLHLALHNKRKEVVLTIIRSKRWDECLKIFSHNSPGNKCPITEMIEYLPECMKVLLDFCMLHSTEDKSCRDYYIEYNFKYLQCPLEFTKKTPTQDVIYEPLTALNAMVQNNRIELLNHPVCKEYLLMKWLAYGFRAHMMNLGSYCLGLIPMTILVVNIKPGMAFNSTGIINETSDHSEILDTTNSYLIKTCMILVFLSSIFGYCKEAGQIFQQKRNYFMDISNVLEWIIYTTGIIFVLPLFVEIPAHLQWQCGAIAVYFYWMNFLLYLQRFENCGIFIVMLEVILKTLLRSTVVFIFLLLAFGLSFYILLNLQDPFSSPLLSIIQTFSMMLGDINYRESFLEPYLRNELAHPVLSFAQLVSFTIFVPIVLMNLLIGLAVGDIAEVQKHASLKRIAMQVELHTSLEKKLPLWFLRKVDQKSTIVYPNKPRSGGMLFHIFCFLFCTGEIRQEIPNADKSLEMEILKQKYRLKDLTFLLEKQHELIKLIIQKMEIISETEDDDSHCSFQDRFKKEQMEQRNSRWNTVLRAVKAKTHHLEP
Format: cell-based
Protocol: Human embryonic kidney-derived 293T cells were cultured in Dulbecco's Modified Eagle Medium containing 10% fetal bovine serum, 10 unit penicillin, and 10 μg streptomycin, plated on a petri dish having a diameter of 10 cm at 3×10^6 cells, and cultured for 24 hr in a CO2 incubator. A reduced serum medium (manufactured by Invitrogen, trade name: OPTI-MEM, 600 μL), a gene transfer reagent (manufactured by Mirus Bio, trade name: Mirus TransIT-293, 18 μL), and human TRPA1 expression plasmid (6 μg) were mixed, the total amount of the mixture was added to the cells on the petri dish to allow for gene transfer. The cells were recovered about for 8 hr later, plated on a poly-D-lysine coated 384 well black/clear bottom plate at 12,000 cells/well, and cultured overnight.
Measurement of Intracellular Calcium Increase
The 384 well plate was recovered, and the medium was removed. A calcium-bonded fluorescent indicator (manufactured by Molecular Device, trade name: Calcium4 Assay Kit, 38 μL) dissolved in assay buffer (1×HBSS, 20 mM HEPES, pH 7.2) was added, and the cells were stained in a CO2 incubator for 1 hr. The cells were taken out at room temperature, stood for not less than 15 min, a test substance (10 μL) was added by a platereader FDSS7000 (Hamamatsu Photonics K.K.) equipped with a 384ch dispenser. After 10 min, allylisothiocyanate (12 μL) was further added at a final concentration of 20 μM, and changes in the relative fluorescence intensity after addition of allylisothiocyanate were measured for 5 min.
Test Substance Preparation
The test substance was dissolved in dimethyl sulfoxide and serially diluted with an assay buffer containing 0.1% bovine serum albumin (1×HBSS, 20 mM HEPES, pH 7.2) to a 4.8-fold concentration of the evaluation concentration. Allylisothiocyanate, which is a known TRPA1 activator, was dissolved in dimethyl sulfoxide to 100 mM, and further diluted 5-fold (100 μM) of the final concentration, like the test substance.
Calculation of Antagonist Activity
Under the test substance-free conditions, the maximum variation range of the fluorescence intensity before and after allylisothiocyanate stimulation was defined to be 100% activity rate, and the variation range before and after buffer stimulation was defined as 0% activity rate. The activity rate on addition of the test substance was determined, and the numerical value obtained by subtracting the activity rate from 100 was defined to be an inhibitory rate. IC50, which is the concentration of the test substance necessary for reaching the 50% inhibitory rate, was calculated from the sigmoid approximate curve by a spreadsheet software Excel-Fit.
Measurement of TRPA1 Antagonist Activity (2)
By a method similar to that in Experimental Example 1-1 except that the lot of human […] expression plasmid is different, the TRPA1 antagonist activity of the test substance was measured.
With `O=C(CN(CC1CC1)S(=O)(=O)c1cc2cc(F)ccc2o1)NCc1cc(-c2ccc(C(F)(F)F)cn2)ccn1` [Example 349, 2-[cyclopropylmethyl-(5-fluorobenzofuran-2-yl)sulfonyl-amino]-N-[[4-[5-(trifluoromethyl)-2-pyridyl]-2-pyridyl]methyl]acetamide] the IC50 was 43 nM.
`O=C(CNS(=O)(=O)c1cc2cc(F)ccc2o1)NCc1cc(-c2ccc(C(F)(F)F)cc2)ncn1` [Example 345, 2-[(5-fluorobenzofuran-2-yl)sulfonylamino]-N-[[6-[4-(trifluoromethyl)phenyl]-pyrimidin-4-yl]methyl]acetamide] showed an IC50 of 270 nM.
Molecule `O=C(NCc1cc(-c2ccc(C(F)(F)F)nc2)ncn1)[C@@H]1CCN1S(=O)(=O)c1cc2ccccc2o1` [Example 408, (2S)-1-(benzofuran-2-ylsulfonyl)-N-[[6-[6-(trifluonomethyl)-3-pyridyl]pyrimidin-4-yl]methyl]azetidine-2-carboxamide] has an IC50 of 16 nM.
`C#CCN([C@@H](C)C(=O)NCc1cc(-c2ccc(C(F)(F)F)cn2)ccn1)S(=O)(=O)c1cc2cc(F)ccc2o1` [Example 418, (2S)-2-[(5-fluorobenzofuran-2-yl)sulfonyl-prop-2-ynylamino]-N-[[4-[5-(trifluoromethyl)-2-pyridyl]-2-pyridyl]methyl]propanamide] was tested, and the IC50 was 11 nM.
For `O=C(NCc1ccnc(-c2ccc(C(F)F)cc2)c1)[C@@H]1CCCN1S(=O)(=O)c1cc2ccccc2o1` [Example 332, (2S)-1-(benzofuran-2-ylsulfonyl)-N-[[2-[4-(difluoromethyl)phenyl]-4-pyridyl]methyl]pyrrolidine-2-carboxamide], the IC50 was 16 nM.
Molecule `CN(C)c1nc(CNC(=O)[C@@H]2CCCN2S(=O)(=O)c2cc3cnccc3o2)cc(-c2ccc(C(F)(F)F)cc2)n1` [Example 375, (2S)-N-[[2-(dimethylamino)-6-[4-(trifluoromethyl)phenyl]-pyrimidin-4-yl]methyl]-1-furo[3,2-c]pyridin-2-ylsulfonyl-pyrrolidine-2-carboxamide] has an IC50 of 13 nM.
With `O=C(NCc1cc(-c2cnc(C(F)(F)F)nc2)ncn1)[C@@H]1CCN1S(=O)(=O)c1cc2ccccc2o1` [Example 409, (2S)-1-(benzofuran-2-ylsulfonyl)-N-[[6-[2-(trifluoromethyl)pyrimidin-5-yl]pyrimidin-4-yl]methyl]azetidine-2-carboxamide] the IC50 was 29 nM.
For `CCN([C@@H](C)C(=O)NCc1cc(-c2ccc(C(F)(F)F)cn2)ccn1)S(=O)(=O)c1cc2cc(F)ccc2o1` [Example 416, (2S)-2-[ethyl-(5-fluorobenzofuran-2-yl)sulfonyl-amino]-N-[[4-[5-(trifluoromethyl)-2-pyridyl]-2-pyridyl]methyl]propanamide], the IC50 was 4.2 nM.
`O=C(NCc1ccc(O)c(-c2ccc(C(F)(F)F)cn2)c1)[C@@H]1CCN1S(=O)(=O)c1cc2cc(F)ccc2o1` [Example 404, (2S)-1-(5-fluorobenzofuran-2-yl)sulfonyl-N-[[4-hydroxy-3-[5-(trifluoromethyl)-2-pyridyl]phenyl]methyl]azetidine-2-carboxamide] was tested, and the IC50 was 9.7 nM.
`CC(C)N(CC(=O)NCc1cc(-c2ccc(C(F)(F)F)cc2O)ncn1)S(=O)(=O)c1cc2cc(F)ccc2o1` [Example 413, 2-[(5-fluorobenzofuran-2-yl)sulfonyl-isopropyl-amino]-N-[[6-[2-hydroxy-4-(trifluoromethyl)phenyl]pyrimidin-4-yl]methyl]acetamide] was tested, and the IC50 was 12 nM.
With `O=C(NCc1cc(-c2ccc(C(F)(F)F)cc2O)ncn1)[C@@H]1CCN1S(=O)(=O)c1cc2cc(F)ccc2o1` [Example 412, (2S)-1-(5-fluorobenzofuran-2-yl)sulfonyl-N-[[6-[2-hydroxy-4-(trifluoromethyl)phenyl]pyrimidin-4-yl]methyl]azetidine-2-carboxamide] the IC50 was 2.7 nM.
Molecule `CN(C)c1nc(CNC(=O)[C@@H]2CCN2S(=O)(=O)c2cc3cc(F)ccc3o2)cc(-c2ccc(C(F)(F)F)cc2)n1` [Example 379, (2S)-N-[[2-(dimethylamino)-6-[4-(trifluoromethyl)phenyl]-pyrimidin-4-yl]methyl]-1-(5-fluorobenzofuran-2-yl)sulfonyl-azetidine-2-carboxamide] has an IC50 of 19 nM.
With `C[C@@H](C(=O)NCc1cc(-c2ccc(C(F)(F)F)cn2)ccn1)N(C)S(=O)(=O)c1cc2cc(F)ccc2o1` [Example 426, (2S)-2-[(5-fluorobenzofuran-2-yl)sulfonyl-methyl-amino]-N-[[4-[5-(trifluoromethyl)-2-pyridyl]-2-pyridyl]methyl]propanamide] the IC50 was 7.7 nM.
`O=C(CN(CC1CCNCC1)S(=O)(=O)c1cc2cc(F)ccc2o1)NCc1cc(-c2ccc(C(F)(F)F)cc2)ncn1` [Example 424, 2-[(5-fluorobenzofuran-2-yl)sulfonyl-(4-piperidylmethyl)amino]-N-[[6-[4-(trifluoromethyl)phenyl]pyrimidin-4-yl]methyl]acetamide] showed an IC50 of 21 nM.
In the case of `O=C(NCc1cc(-c2ccc(C(F)(F)F)cc2)nc(N2CCOCC2)n1)[C@@H]1CCCN1S(=O)(=O)c1cc2ccccc2o1` [Example 330, (2S)-1-(benzofuran-2-ylsulfonyl)-N-[[2-morpholino-6-[4-(trifluoromethyl)phenyl]pyrimidin-4-yl]methyl]pyrrolidine-2-carboxamide], the IC50 is reported as 15 nM.
With `C[C@H](NS(=O)(=O)c1cc2cnccc2o1)C(=O)NCc1cccc(-c2ccc(C(F)(F)F)cn2)c1` [Example 367, (2S)-2-(furo[3,2-c]pyridin-2-ylsulfonylamino)-N-[[3-[5-(trifluoromethyl)-2-pyridyl]-phenyl]methyl]propanamide] the IC50 was 170 nM.
`C[C@H](NS(=O)(=O)c1cc2cc(F)ccc2o1)C(=O)NCc1cc(-c2ccc(C(F)(F)F)cc2O)nc(N(C)C)n1` [Example 377, (2S)-N-[[2-(dimethylamino)-6-[2-hydroxy-4-(trifluoromethyl)phenyl]-pyrimidin-4-yl]methyl]-2-[(5-fluorobenzofuran-2-yl)sulfonylamino]propanamide] gave an IC50 of 110 nM.
In the case of `O=C(NCc1cc(-c2ncc(C(F)(F)F)cn2)ccn1)[C@@H]1CCN1S(=O)(=O)c1cc2cc(F)ccc2o1` [Example 394, (2S)-1-(5-fluorobenzofuran-2-yl)sulfonyl-N-[[4-[5-(trifluoromethyl)pyrimidin-2-yl]-2-pyridyl]methyl]azetidine-2-carboxamide], the IC50 is reported as 11 nM.
`CN(C(C)(C)C(=O)NCc1cc(-c2ccc(C(F)(F)F)cn2)ccn1)S(=O)(=O)c1cc2cc(F)ccc2o1` [Example 340, 2-[(5-fluorobenzofuran-2-yl)sulfonyl-methyl-amino]-2-methyl-N-[[4-[5-(trifluoromethyl)-2-pyridyl]-2-pyridyl]methyl]propanamide] showed an IC50 of 380 nM.
In the case of `CC(C)N(CC(=O)NCc1cc(-c2ccc(C(F)(F)F)cc2)ncn1)S(=O)(=O)c1cc2cc(F)ccc2o1` [Example 420, 2-[(5-fluorobenzofuran-2-yl)sulfonyl-isopropyl-amino]-N-[[6-[4-(trifluoromethyl)phenyl]pyrimidin-4-yl]methyl]acetamide], the IC50 is reported as 10 nM.
With `O=C(NCc1ccnc(-c2ccc(C(F)(F)F)cc2O)c1)[C@@H]1CCN1S(=O)(=O)c1cc2cc(F)ccc2o1` [Example 383, (2S)-1-(5-fluorobenzofuran-2-yl)sulfonyl-N-[[2-[2-hydroxy-4-(trifluoromethyl)phenyl]-4-pyridyl]methyl]azetidine-2-carboxamide] the IC50 was 9.7 nM.
`CN(C)c1nc(CNC(=O)[C@@H]2CCCN2S(=O)(=O)c2cc3cc(F)ccc3o2)cc(-c2ccc(C(F)(F)F)cc2O)n1` [Example 397, (2S)-N-[[2-(dimethylamino)-6-[2-hydroxy-4-(trifluoromethyl)phenyl]-pyrimidin-4-yl]methyl]-1-(5-fluorobenzofuran-2-yl)sulfonyl-pyrrolidine-2-carboxamide] gave an IC50 of 6.8 nM.
`O=C(NCc1ccnc(-c2cnc(C(F)(F)F)nc2)c1)[C@@H]1CCN1S(=O)(=O)c1cc2cc(F)ccc2o1` [Example 403, (2S)-1-(5-fluorobenzofuran-2-yl)sulfonyl-N-[[2-[2-(trifluoromethyl)pyrimidin-5-yl]-4-pyridyl]methyl]azetidine-2-carboxamide] gave an IC50 of 13 nM.
`O=C(NCc1cc(-c2ccc(C(F)(F)F)cn2)cnn1)[C@@H]1CCCN1S(=O)(=O)c1cc2cc(F)ccc2o1` [Example 396, (2S)-1-(5-fluorobenzofuran-2-yl)sulfonyl-N-[[5-[5-(trifluoromethyl)-2-pyridyl]pyridazin-3-yl]methyl]pyrrolidine-2-carboxamide] was tested, and the IC50 was 7.6 nM.
